Results published in PMC11446937, “Bacteria from the Amycolatopsis genus associated with a toxic bird secrete protective secondary metabolites” (Nature Communications, 2024).

Key:
[1] = tested on: C. albicans SC5314; assay: Disc-diffusion antimicrobial assay, ecologically relevant indicator strains; assay type: cell-based, Candida albicans; conditions: Suppl. Table 16, pure compounds 10 mg/mL in DMSO, 5 µl per disc, control Amph B 10 µg/mL (DMSO/H2O), DMSO control 0, n=1
[2] = tested on: C. albicans C.A.; assay: Disc-diffusion antimicrobial assay, clinically relevant indicator strains; assay type: cell-based; conditions: Amph B 10 µg/mL (DMSO/H2O)
Method: (§1) Disc-diffusion antimicrobial activity assays against clinically relevant indicator strains.
(§2) Pure compounds (1 mg/mL in DMSO or 50% MeOH) were tested for their antimicrobial activity against a variety of bacterial and fungal indicator strains: B. subtilis 6633 (Bs), S. aureus SG511 (Sa1), E. coli SG458 (Ec), P. aeruginosa K799/61 (Pa), S. aureus 134/94 (MRSA) (Sa2), E. faecalis 1528 (VRSA) (Ef), Mycobacterium vaccae 10670 (Mv), Sporobomyces salmonicolor 549 (Ss), C. albicans C.A. (Ca), and Penicillium notatum JP36 (Pn). On each disc, 50 µl compound solution (50 µg) were applied. Antimicrobial activity was determined by measuring the inhibition zone surrounding the disc in mm (n=3).
(§3) Bs: B. subtilis 663, Sa1: S. aureus SG511, Ec: E. coli SG458, Pa: P. aeruginosa K799/61, Sa2: S. aureus 134/94 (MRSA), Ef: E. faecalis 1528 (VRSA), Mv: M. vaccae 10670, Ss: S. salmonicolor 549, Ca: C. albicans C.A., Pn: P. notatum JP36. P: colonies in the inhibition zone, p: single colonies in the inhibition zone. A: no to low inhibition, n.t.: not tested.
(§4) B. subtilis 663, Sa1: S. aureus SG511, Ec: E. coli SG458, Ca: C. albicans C.A., P: colonies in the inhibition zone, […]

[3] = tested on: Penicillium notatum JP36; assay: as above; assay type: cell-based; conditions: Suppl. Table 17, 1 mg/mL in DMSO, 50 µl (50 µg) per disc, Amph B 10 µg/mL (DMSO/H2O), DMSO solvent control itself 12P, n=3
Method: as §1, §2, §3, §4

[4] = tested on: Sporobomyces salmonicolor 549; assay: as above; assay type: cell-based; conditions: Suppl. Table 17, 1 mg/mL in DMSO, 50 µl (50 µg) per disc, Amph B 10 µg/mL (DMSO/H2O), DMSO solvent control itself 13P, n=3
Method: as §1, §2, §3, §4

[5] = tested on: B. licheniformis DSM13; assay: Disc-diffusion antimicrobial assay, ecologically relevant indicator strains; assay type: cell-based, Bacillus licheniformis; conditions: Suppl. Table 16, pure compounds 10 mg/mL in DMSO, 5 µl per disc, control Cip 5 µg/mL (HCl), DMSO control 0, n=1
[6] = tested on: K. rhizophila DSM11926; assay: as above; assay type: cell-based, Kocuria rhizophila; conditions: Suppl. Table 16, pure compounds 10 mg/mL in DMSO, 5 µl per disc, control Cip 5 µg/mL (HCl), DMSO control 0, n=1
[7] = tested on: B. thuringiensis DSM104061; assay: as above; assay type: cell-based, Bacillus thuringiensis; conditions: Suppl. Table 16, pure compounds 10 mg/mL in DMSO, 5 µl per disc, control Cip 5 µg/mL (HCl), DMSO control 0, n=1
[8] = tested on: P. monteilii DSM1388; assay: as above; assay type: cell-based, Pseudomonas monteilii; conditions: Suppl. Table 16, pure compounds 10 mg/mL in DMSO, 5 µl per disc, control Cip 5 µg/mL (HCl), DMSO control 0, n=1
[9] = tested on: cruzain; assay: Fluorimetric protease inhibition assay; assay type: biochemical, Trypanosoma cruzi; conditions: 200 µM, 10 min, mean ± standard deviation, n=3
[10] = tested on: cathepsin L; assay: Fluorimetric protease inhibition assay; assay type: biochemical; conditions: 200 µM, 10 min, mean ± standard deviation, n=3
[11] = tested on: cathepsin B; assay: Fluorimetric protease inhibition assay; assay type: biochemical; conditions: 200 µM, 10 min, mean ± standard deviation, n=3
[12] = tested on: DENV2 NS2B-NS3; assay: Fluorimetric protease inhibition assay; assay type: biochemical; conditions: 200 µM, 10 min, mean ± standard deviation, n=3
[13] = tested on: urokinase (uPA); assay: Fluorimetric protease inhibition assay; assay type: biochemical; conditions: 200 µM, 10 min, mean ± standard deviation, n=3
[14] = tested on: P. aeruginosa K799/61; conditions: Suppl. Table 17; disc diffusion; 1 mg/mL in DMSO, 50 µl (50 µg) per disc; Cip 5 µg/mL (H2O/HCl); DMSO solvent control itself 12P; n=3
[15] = tested on: rhodesain; conditions: 200 µM
[16] = tested on: SARS-CoV2 Mpro; conditions: 200 µM; fluorimetric, 10 min; mean ± standard deviation, n=3
[17] = tested on: SARS-CoV PLpro; conditions: 200 µM; fluorimetric, 10 min; mean ± standard deviation, n=3
[18] = tested on: ZIKV NS2B-NS3; conditions: 200 µM
[19] = tested on: sortase A (SrtA); conditions: 200 µM
[20] = tested on: B. subtilis 6633; assay: Disc-diffusion antimicrobial assay, clinically relevant indicator strains; conditions: Suppl. Table 17, 1 mg/mL in DMSO, 50 µl (50 µg) per disc, Cip 5 µg/mL (H2O/HCl), DMSO solvent control itself 12P, n=3
[21] = tested on: S. aureus SG511; assay: as above; conditions: Suppl. Table 17, 1 mg/mL in DMSO, 50 µl (50 µg) per disc, Cip 5 µg/mL (H2O/HCl), DMSO solvent control itself 11P, n=3
[22] = tested on: E. coli SG458; assay: as above; conditions: Suppl. Table 17, 1 mg/mL in DMSO, 50 µl (50 µg) per disc, Cip 5 µg/mL (H2O/HCl), DMSO solvent control itself 12P, n=3
[23] = tested on: S. aureus 134/94 (MRSA); assay: as above; conditions: Suppl. Table 17, 1 mg/mL in DMSO, 50 µl (50 µg) per disc, Cip 5 µg/mL (H2O/HCl), DMSO solvent control 0, n=3
[24] = tested on: Mycobacterium vaccae 10670; assay: as above; conditions: Suppl. Table 17, 1 mg/mL in DMSO, 50 µl (50 µg) per disc, Cip 5 µg/mL (H2O/HCl), DMSO solvent control itself 11P, n=3
[25] = Suppl. Table 17, disc diffusion, 1 mg/mL in DMSO, 50 µl (50 µg) per disc, DMSO solvent control 0, n=3

Compound | inhibition zone, Ca2 [1] | inhibition zone, Ca [2, 25] | inhibition zone, Pn [3] | inhibition zone, Ss [4] | inhibition zone, Bl [5] | inhibition zone, Kr [6] | inhibition zone, Bt [7] | inhibition zone, Pm [8] | Protease inhibition rate, Cruzain [9] | Protease inhibition rate, Cathepsin L [10] | Protease inhibition rate, Cathepsin B [11] | Protease inhibition rate, DENV2 [12] | Protease inhibition rate, uPA [13] | Protease inhibition rate, Rhodesain [15] | Protease inhibition rate, Mpro (SARS-CoV2) [16] | Protease inhibition rate, PLpro (SARS-CoV) [17] | Protease inhibition rate, SrtA [19] | inhibition zone, Bs [20] | inhibition zone, Sa1 [21] | inhibition zone, Ec [22] | other results
C[C@@H]1[C@H](O)[C@@H](C)/C=C/C=C/C=C/C=C/C=C/C=C/C=C/[C@H](O[C@@H]2O[C@H](C)[C@@H](O)[C@H](N)[C@@H]2O)C[C@@H]2O[C@](O)(C[C@@H](O)C[C@@H](O)[C@H](O)CC[C@@H](O)C[C@@H](O)CC(=O)O[C@H]1C)C[C@H](O)[C@H]2C(=O)O [Amph B, Amphotericin B, reference compound] | 20 mm | 20 mm | 18p | 17p |  |  |  |  |  |  |  |  |  |  |  |  |  |  |  |  | inhibition zone, Ca ([2]; Suppl. Table 18, compound mixtures, total conc. 1 mg/mL in 50% MeOH, solvent control 0, n=1): 21 mm
O=C(O)c1cn(C2CC2)c2cc(N3CCNCC3)c(F)cc2c1=O [Cip, Ciprofloxacin, reference compound] |  |  |  |  | 35 mm | 22 mm | 28 mm | 33 mm |  |  |  |  |  |  |  |  |  |  |  |  | 
Pachycephalamide A [Compound 1] | 0 mm |  | 11p | 15p | 0 mm | 0 mm | 0 mm | 0 mm | 64.85 ± 1.50% | 61.88 ± 2.85% | 55.19 ± 2.16% | 8.57 ± 3.83% | 8.32 ± 4.90% | 55.29 ± 2.15 | 12.82 ± 8.66% | 1.01 ± 1.74% | 12.86 ± 2.35 | 0 mm | 0 mm | 0 mm | inhibition zone, Pa [14]: 18P; Protease inhibition rate, ZIKV [18]: 7.99 ± 3.53; inhibition zone, Sa2 [23]: 0 mm; inhibition zone, Mv [24]: 0 mm
Pachycephalamide B [Compound 2] | 0 mm | 0 mm | 13p | 14p | 0 mm | 0 mm | 0 mm | 0 mm | 49.62 ± 3.44% | 50.42 ± 1.21% | 54.94 ± 2.96% | 29.25 ± 7.00% | 0 ± 0% | 47.71 ± 2.73 | 57.34 ± 9.94% | 14.94 ± 1.31% | 61.07 ± 4.93 | 0 mm | 0 mm | 15P | inhibition zone, Pa [14]: 18P; Protease inhibition rate, ZIKV [18]: 29.95 ± 3.36; inhibition zone, Sa2 [23]: 0 mm
Pachycephalamide C [Compound 3] | 0 mm | 0 mm | 13p | 22p | 0 mm | 0 mm | 0 mm | 0 mm | 63.82 ± 1.43% | 62.51 ± 4.09% | 56.16 ± 6.18% | 9.19 ± 3.06% | 0 ± 0% | 58.33 ± 1.36 | 9.25 ± 7.28% | 0 ± 0% | 14.00 ± 4.62 | 0 mm | 0 mm | 15P | inhibition zone, Sa2 [23]: 0 mm
